Several values for one entry are separate records, joined by “and”; a condition that tells them apart may be missing. Equal entries are not always repeated. Activity calls are given as the source filed them. No cut-off for these calls is given here. *1 amine or outer side, *2 acyl side, *3 side chain or, on linkers, in order; H or OH if unused. Where a SMILES comes first, the peptide text is derived from it. [ ]: non-standard residue; d: D form. The star is where a group is joined. GluureaLys(ε-3-ClBenzyl) = O=C(O)CC[C@H](NC(=O)N[C@@H](CCCCN(Cc1cccc(Cl)c1)*)C(=O)O)C(=O)O; Dolaproine = CO[C@@H]([C@@H]1CCCN1)[C@@H](C)C(=O)O; Dil = CC[C@H](C)[C@H](NC)[C@@H](CC(=O)O)OC; X1 = O=C(CCCc1cn(CCCN[*:1])nn1)[*:2]; PABC = O=C(OCc1ccc(N[*:1])cc1)[*:2]; X2 = C[C@@H](N*)[C@@H](O)c1ccccc1; Cit = NC(=O)NCCC[C@H](N)C(=O)O; Suc = O=C(CCC(=O)[*:2])[*:1]; NMeV = CN[C@H](C(=O)O)C(C)C; Ahx = NCCCCCC(=O)O
How the values were obtained:
Cathepsin B = Cathepsin B (Homo sapiens, UniProt P07858); test: Stability of compound at pH 3.6 assessed as recombinant cathepsin B (unknown origin) mediated hydrolysis half life by HPLC-MS analysis; assay type: ADME
PC-3 [1] = test: Cytotoxicity against human PC-3 cells not expressing PMSA measured using MTT assay; assay type: functional
CWR22R [2] = test: Induction of intracellular reactive oxygen species production in human 22Rv1 cells incubated for 1 hr measured at CC50 concentration by amperometric method; assay type: functional, cell-based
[3] = Stability of compound in pH 5.5 assessed as hydrolysis measured within 96 hrs; assay type: physicochemical; conditions: buffer, pH 5.5, 96 h
[4] = Stability of compound in pH 7.4 assessed as hydrolysis measured within 96 hrs; assay type: physicochemical; conditions: buffer, pH 7.4, 96 h
[5] = Acute toxicity in iv dosed ICR mouse assessed as median mortality dose; assay type: organism-based; conditions: in vivo
[6] = Toxicity in rabbit assessed as morphological changes in kidney at 81 to 122 microg/kg, iv; assay type: tissue-based, Oryctolagus cuniculus; conditions: in vivo, dose 81-122 µg/kg
[7] = Toxicity in rat assessed as morphological changes in tongue at 150 to 225 microg/kg, iv; assay type: tissue-based; conditions: in vivo, dose 150-225 µg/kg
[8] = Toxicity in rabbit assessed as morphological changes in gastric wall mucosa at 81 to 122 microg/kg, iv; parameters: species or system Oryctolagus cuniculus; conditions: in vivo, dose 81-122 µg/kg
[9] = Toxicity in rat assessed as morphological changes in mucosa of trachea at 150 to 225 microg/kg, iv; assay type: tissue-based; conditions: in vivo, dose 150-225 µg/kg
[10] = Toxicity in rabbit assessed as morphological changes in capsule of the kidney at 81 to 122 microg/kg, iv; assay type: tissue-based, Oryctolagus cuniculus; conditions: in vivo, dose 81-122 µg/kg
[11] = Toxicity in rabbit assessed as morphological changes in adrenal gland at 81 to 122 microg/kg, iv; assay type: tissue-based, Oryctolagus cuniculus; conditions: in vivo, dose 81-122 µg/kg
[12] = Toxicity in rabbit assessed as morphological changes in thymus at 81 to 122 microg/kg, iv; assay type: tissue-based, Oryctolagus cuniculus; conditions: in vivo, dose 81-122 µg/kg
[13] = Toxicity in rat assessed as morphological changes in thymus at 150 to 225 microg/kg, iv; assay type: tissue-based; conditions: in vivo, dose 150-225 µg/kg
[14] = Toxicity in rat assessed as morphological changes in heart valve at 150 to 225 microg/kg, iv; assay type: tissue-based; conditions: in vivo, dose 150-225 µg/kg
[15] = Toxicity in rat assessed as morphological changes in brain gyrus at 150 to 225 microg/kg, iv; assay type: tissue-based; conditions: in vivo, dose 150-225 µg/kg
[16] = Toxicity in rat assessed as morphological changes in aortic intima at 150 to 225 microg/kg, iv; conditions: in vivo, dose 150-225 µg/kg
[17] = Toxicity in rat assessed as morphological changes in brain ventricle at 150 to 225 microg/kg, iv; assay type: tissue-based; conditions: in vivo, dose 150-225 µg/kg
[18] = Toxicity in rabbit assessed as histological change in spermatagonia in seminiferous tubule in testes at 81 to 122 microg/kg, iv; parameters: species or system Oryctolagus cuniculus; conditions: in vivo, dose 81-122 µg/kg
[19] = Toxicity in rabbit assessed as pathological change in leydig cells in testes at 81 to 122 microg/kg, iv; assay type: cell-based, Oryctolagus cuniculus; conditions: in vivo, dose 81-122 µg/kg
CWR22R [20] = test: Antitumor activity against human 22Rv1 cells xenografted in mouse assessed as tumour growth inhibition at 0.3 mg/kg, ip daily treated for 5 days after 18 days of tumor implantation measured upto 10 days; assay type: functional; conditions: 22Rv1, ip, 120 h, time 5 day, read-out: TGI
[21] = Toxicity in mouse xenografted with human 22Rv1 cells assessed as early fell at 0.6 mg/kg, ip daily treated for 5 days after 18 days of tumor implantation measured upto 10 days; assay type: organism-based, CWR22R; conditions: in vivo, 120 h, time 5 day
[22] = Antitumor activity against human 22Rv1 cells xenografted in mouse assessed as tumour growth inhibition at 10 mg/kg,ip daily treated for 5 days after 18 days of tumor implantation measured upto 10 days; assay type: functional, CWR22R; conditions: 22Rv1, ip, 120 h, time 5 day, read-out: TGI
[23] = Toxicity in mouse assessed as change in body weight at 0.3 mg/kg, iv measured after 20 days; assay type: organism-based; conditions: in vivo, 480 h, time 20 day
[24] = Antitumor activity against human 22Rv1 cells xenografted in mouse assessed as tumour growth inhibition at 0.3 mg/kg, ip daily treated for 5 days after 18 days of tumor implantation measured upto 15 days; assay type: functional, CWR22R; conditions: 22Rv1, ip, 120 h, time 5 day, read-out: TGI
[25] = Half life in rabbit at 0.81 mg/kg, iv; assay type: ADME, organism-based, Oryctolagus cuniculus; conditions: in vivo
[26] = Volume of distribution in Wistar rat at 1.5 mg/kg, iv; assay type: ADME, organism-based; conditions: in vivo
[27] = Volume of distribution in rabbit at 0.81 mg/kg, iv; assay type: ADME, organism-based, Oryctolagus cuniculus; conditions: in vivo
[28] = Mean residence time (0 to t) in Wistar rat at 1.5 mg/kg, iv; assay type: ADME, organism-based; conditions: in vivo
[29] = Ratio of AUC (t to infinity) to AUC (0 to infinity) in rabbit plasma at 0.81 mg/kg, iv; assay type: ADME, organism-based, Oryctolagus cuniculus; conditions: in vivo
Cytochrome P450 1A2 = molecular target: T1, Cytochrome P450 1A2 (Homo sapiens, UniProt P05177); test: Inhibition of CYP1A2 in human liver microsome using phenacetin as substrate; assay type: ADME, microsomes
T1 sequence (P05177 whole entry): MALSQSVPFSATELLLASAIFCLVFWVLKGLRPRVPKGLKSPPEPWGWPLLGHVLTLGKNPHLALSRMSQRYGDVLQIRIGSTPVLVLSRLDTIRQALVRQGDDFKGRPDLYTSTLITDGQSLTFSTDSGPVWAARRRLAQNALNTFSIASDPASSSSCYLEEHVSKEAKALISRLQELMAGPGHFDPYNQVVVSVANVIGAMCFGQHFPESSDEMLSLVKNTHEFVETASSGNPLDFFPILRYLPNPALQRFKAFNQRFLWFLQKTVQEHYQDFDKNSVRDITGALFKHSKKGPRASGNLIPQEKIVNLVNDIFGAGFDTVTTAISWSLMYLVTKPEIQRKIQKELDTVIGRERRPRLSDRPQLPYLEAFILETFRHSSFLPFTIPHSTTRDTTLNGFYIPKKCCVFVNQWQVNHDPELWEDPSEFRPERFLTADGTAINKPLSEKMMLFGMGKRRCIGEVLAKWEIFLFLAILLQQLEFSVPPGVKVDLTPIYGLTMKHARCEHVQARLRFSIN

Cytochrome P450 3A4 = Cytochrome P450 3A4 (Homo sapiens, UniProt P08684); test: Inhibition of CYP3A4 in human liver microsome using testosterone as substrate; assay type: ADME, microsomes
Cytochrome P450 2D6 = Cytochrome P450 2D6 (Homo sapiens, UniProt P10635); test: Inhibition of CYP2D6 in human liver microsome using dextromethorphan as substrate; assay type: ADME, microsomes
Salmonella typhimurium [30] = test: Mutagenecity in Salmonella typhimurium TA98 in presence of metabolic activation system at 10 ug/ml by Ames test; assay type: toxicity, organism-based; conditions: salmonella enterica subsp. enterica serovar typhimurium; dose 10 µg/ml
Salmonella typhimurium [31] = test: Mutagenecity in Salmonella typhimurium TA97 in presence of metabolic activation system at 100 ug/ml by Ames test; assay type: toxicity, organism-based; conditions: salmonella enterica subsp. enterica serovar typhimurium; dose 100 µg/ml
Salmonella typhimurium [32] = test: Mutagenecity in Salmonella typhimurium TA100 without metabolic activation system at 10 ug/ml by Ames test; assay type: toxicity, organism-based; conditions: salmonella enterica subsp. enterica serovar typhimurium; dose 10 µg/ml
Salmonella typhimurium [33] = test: Mutagenecity in Salmonella typhimurium TA97 without metabolic activation system at 1 ug/ml by Ames test; assay type: toxicity, organism-based; conditions: salmonella enterica subsp. enterica serovar typhimurium; dose 1 µg/ml
PC-3 [34] = test: Induction morphological changes in human PC-3 cells assessed as decrease in cell membrane stiffness measured immediately after MMAE addition; assay type: functional, cell-based; conditions: time hrs <=1
[35] = Toxicity in rabbit assessed as hemorrhage at 81 to 122 microg/kg, iv; parameters: species or system Oryctolagus cuniculus; conditions: in vivo, dose 81-122 µg/kg

Chain of Cytochrome P450 3A4 (P08684 whole entry): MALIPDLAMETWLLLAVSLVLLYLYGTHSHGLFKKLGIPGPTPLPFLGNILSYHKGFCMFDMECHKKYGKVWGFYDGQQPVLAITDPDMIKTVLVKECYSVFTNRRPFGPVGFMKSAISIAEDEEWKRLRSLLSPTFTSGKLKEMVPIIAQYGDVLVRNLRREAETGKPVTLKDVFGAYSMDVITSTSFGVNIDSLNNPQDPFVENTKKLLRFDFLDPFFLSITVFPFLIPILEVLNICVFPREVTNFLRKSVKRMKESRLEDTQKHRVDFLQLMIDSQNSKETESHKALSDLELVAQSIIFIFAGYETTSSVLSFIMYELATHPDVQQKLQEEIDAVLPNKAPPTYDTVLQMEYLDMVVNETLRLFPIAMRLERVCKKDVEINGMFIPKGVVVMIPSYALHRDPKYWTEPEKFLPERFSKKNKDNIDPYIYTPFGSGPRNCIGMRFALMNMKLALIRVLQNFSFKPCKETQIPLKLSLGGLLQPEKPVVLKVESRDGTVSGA
Chain of Cytochrome P450 2D6 (P10635 whole entry): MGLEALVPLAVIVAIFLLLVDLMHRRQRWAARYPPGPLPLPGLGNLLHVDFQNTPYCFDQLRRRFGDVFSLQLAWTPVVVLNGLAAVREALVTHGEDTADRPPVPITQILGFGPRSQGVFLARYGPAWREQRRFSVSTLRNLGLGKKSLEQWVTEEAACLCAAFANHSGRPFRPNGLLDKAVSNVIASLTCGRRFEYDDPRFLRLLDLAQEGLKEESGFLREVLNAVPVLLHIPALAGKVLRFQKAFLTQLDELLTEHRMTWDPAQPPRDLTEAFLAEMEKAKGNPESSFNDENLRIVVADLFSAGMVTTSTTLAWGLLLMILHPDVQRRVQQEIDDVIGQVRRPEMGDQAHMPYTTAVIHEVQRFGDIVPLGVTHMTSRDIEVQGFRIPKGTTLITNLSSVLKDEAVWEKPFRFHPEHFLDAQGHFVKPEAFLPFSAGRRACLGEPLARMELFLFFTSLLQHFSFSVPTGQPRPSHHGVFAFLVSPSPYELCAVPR

## CC[C@H](C)[C@@H]([C@@H](CC(=O)N1CCC[C@H]1[C@H](OC)[C@@H](C)C(=O)N[C@H](C)[C@@H](O)c1ccccc1)OC)N(C)C(=O)[C@@H](NC(=O)[C@H](C(C)C)N(C)C(=O)OCc1ccc(NC(=O)[C@H](CCCNC(N)=O)NC(=O)[C@@H](NC(=O)CCCc2cn(CCCNC(=O)[C@H](Cc3ccc(O)cc3)NC(=O)[C@H](Cc3ccccc3)NC(=O)CCC(=O)NCCCCCC(=O)N(CCCC[C@H](NC(=O)N[C@@H](CCC(=O)O)C(=O)O)C(=O)O)Cc3cccc(Cl)c3)nn2)C(C)C)cc1)C(C)C ({GluureaLys(ε-3-ClBenzyl)-Ahx-Suc}-FY[X1]V[Cit][PABC][NMeV]V[Dil][Dolaproine]-X2)
Cathepsin B
  half-life: 0.417 h
PC-3 [1]
  CC50: 0.027 µM
CWR22R [2]
  Activity: Active
[3]
  Stability: Stable
[4]
  Stability: Stable
[5]
  LD50: 6.3 mg/kg and 2.7 µmol/kg
[6]
  Activity: Non-Toxic
[7]
  Activity: Non-Toxic
[8]
  Activity: Non-Toxic
[9]
  Activity: Non-Toxic
[10]
  Activity: Non-Toxic
[11]
  Activity: Non-Toxic
[12]
  Activity: Non-Toxic
[13]
  Activity: Non-Toxic
[14]
  Activity: Non-Toxic
[15]
  Activity: Non-Toxic
[16]
  Activity: Non-Toxic
[17]
  Activity: Non-Toxic
[18]
  Activity: Toxic
[19]
  Activity: Non-Toxic
CWR22R [20]
  inhibition in vivo at 0.3 mg/kg: 70%
[21]
  Activity: Toxic
[22]
  inhibition in vivo at 10 mg/kg: 84%
[23]
  Activity: Non-Toxic
[24]
  inhibition in vivo at 0.3 mg/kg: 77.4%
[25]
  half-life: 4.6 h
[26]
  Vd: 0.126 L/kg
[27]
  Vd: 0.158 L/kg
[28]
  MRT last: 3.8 h
[29]
  Ratio: 13%
Cytochrome P450 1A2
  IC50: > 25 µM
Cytochrome P450 3A4
  IC50: 11.2 µM
Cytochrome P450 2D6
  IC50: > 25 µM
Salmonella typhimurium [30]
  Activity: Non-Toxic
Salmonella typhimurium [31]
  Activity: Non-Toxic
Salmonella typhimurium [32]
  Activity: Non-Toxic
Salmonella typhimurium [33]
  Activity: Non-Toxic
PC-3 [34]
  Activity: inactive
[35]
  Activity: Toxic
